Legend:
[1] = system: primary mouse splenic B-cells (B220+ IgM+); assay: radiosensitization of primary mouse B-cells by DIDS (Trypan blue dye exclusion); format: cell-based; conditions: 2.5 Gy gamma irradiation combined with DIDS, starting at 50 micromolar, 24 hours after irradiation
Method: Primary mouse splenic B-cells were isolated from normal, wild-type C57BL/6J mice as described in Example 1 and sorted with magnetic beads (Miltenyi) to enrich B220+ IgM+ B-cells. Purified B-cells were cultured in complete RPMI-1640 medium with 10% FBS with 0, 50, 100, or 150 micromolar DIDS. Cells were then subjected to either 0 (FIG. 14, filled circles) or 2.5 Gy (=250 rads; FIG. 14, open circles) of gamma irradiation in a Cs137 irradiator. Cell viability was subsequently scored for each condition and plotted relative to the no DIDS condition by manual cytometry using a hemacytometer and Trypan blue dye exclusion 24 hours after irradiation. The fraction of viable cells is reported normalized to the corresponding 0 μM DIDS condition. Error bars represent the standard error of the mean (S.E.M) from three independent experiments.

[2] = system: RAD51 foci in primary mouse B-cells; assay: RAD51 focus formation after ionizing radiation (immunofluorescence); format: cell-based
Method: Primary mouse B-cells were isolated from spleen of wild type C57BL/6J mice by magnetic bead based sorting (Miltenyi) to purify B220+ IgM+ B-cells. B-cells were then […], exposed to 0 or 2.5 Gy ionizing radiation in a Cs137 irradiator, and then stained by immunofluorescence for foci of the homologous recombination factor RAD51. The fraction of cells in each culture showing formation of RAD51 foci within the nucleus is reported. Irradiated cells not cultured with DIDS (0 μM) show efficient focus formation. […] Error bars show the standard error of the mean (S.E.M) from three independent experiments.

[3] = system: AID-negative (AID−) primary human CLL cells; assay: survival of primary human CLL cells cultured with DIDS (manual cytometry); format: cell-based; conditions: 30 micromolar DIDS, 2, 4 or 8 days, versus untreated
Method: AID-expressing (AID+) or AID-negative (AID−) primary human CLL cells were cultured as described in Example 4. Cells were cultured in basic RPMI-1640 medium without supplementation (untreated; triangle in FIG. 17) or with 30 micromolar DIDS. Open circles represent the data for AID-negative cells treated with 30 micromolar DIDS and filled boxes represent the data for AID-positive cells treated with 30 micromolar DIDS. The cell survival was scored by manual cytometry for viable cells after 2, 4, or 8 days of exposure.
Eight AID+ and eight AID− CLL samples were cultured in basic RPMI-1640 medium plus 30 micromolar DIDS, and survival was scored by manual cytometry for viable cells after 2, 4, 6, or 8 days. […] A total of 117 lymphoma or leukemia patients were studies, of which 106 were CLL patients. In 47% AID expression was determined by RT-PCR.

[4] = system: primary chronic lymphocytic leukemia (CLL) cells; assay: viable cell counts of primary human CLL cells treated with DIDS; format: cell-based; conditions: 150 μM or 600 μM DIDS, days 2, 4, 6, 8, relative to untreated control
Method: Blood samples (8-16 mL) from patients were collected via peripheral bleed into BD Vacutainer CPT tubes (BD, Franklin Lakes, N.J.), centrifuged to sequester red blood cells below the separation gel according to manufacturer instructions, and transported within 24 hours to the Jackson Laboratory. Upon receipt, peripheral blood mononuclear cells (PBMC) were isolated from samples according to manufacturer specifications. White blood cell (WBC) counts from 14 primary chronic lymphocytic leukemia (CLL) samples from human patients were calculated from complete blood count (CBC) with differentials. Calculated values were compared with empirical cell counts following cell separation and overnight shipping. […] The primary CLL samples (WBC) were diluted to standard concentration and 3.0×10^6 cells were seeded in cultures. Replicate cultures were supplemented with 0 μM (n=5), 150 μM DIDS (n=4), or 600 μM DIDS (n=2). Viable cell counts were determined by manual counting using a hemacytometer on days 2, 4, 6, and 8 of culture.

[5] = system: BXSB.Yaa Cd8/IL15−/− mice; assay: mouse systemic lupus erythematosus (SLE) model treated with DIDS; format: in vivo
Description: BXSB.Yaa Cd8/IL15−/− mice are an established model for SLE. These mice display many characteristics of human SLE including hypergammaglobulinemia, circulating antinuclear antibodies and immune complex medicated glomerulonephritis, and ultimately succumb to disease around 24 weeks of age (Andrews et al. 1978, J Exp Med 148: 1198-215; Dixon et al. 1978, Arthritis Rheum 21: S64-7; Izui et al. 2000, Int Rev Immunol 19: 447-72). Genetic deletion of Cd8a and IL15 from the model results in a similar clinical phenotype which appears much early with survival averaging 14 weeks of age (McPhee et al. 2011, J Immunol 187:4695-4704)
Six week old male BXSB.Cg-Cd8a<tm1Mak> IL15<tm1Imx>/Dcr (abbreviated as BXSB.Yaa Cd8/IL15−/−) mice were retro-orbitally bled into heparin primed tubes to collect serum. 25 mg/kg (n=5) or 50 mg/kg DIDS (n=6) in 4% potassium bicarbonate with PBS or an equivalent volume of 4% potassium bicarbonate (n=2 and n=4) was administered intraperitoneally on day 0, and every seven days for five weeks. Mice were weighed weekly and serum was collected at 14 day intervals for a 5-week period. These mice were then aged for survival. The serum was analyzed by ELISA for IgG1 and IgG2b content. For the ELISA plates were coated with goat anti-mouse Ig (IgG1 or IgG2b) and incubated overnight at […] Plates were washed three times and P-nitrophenyl Phosphate (p-NPP, AMRESCO) was applied, incubated until standards developed adequately and read on a SpectraMax ELISA plate reader using SoftmaxPro software. Data are expressed as concentration of IgG (mg/ml) based on titration of isotype-specific purified mouse standards. […] Survival data was analyzed using Graphpad Prism software and assessed for statistical significance using both the log-rank Mantel Cox with (FIG. 20A for the 25 mg/kg group with a p value of 0.4289 and FIG. 20B for the 50 mg/kg group with a p value of 0.3698) and Gehan-Breslow-Wilcoxan tests (FIG. 21A for the 25 mg/kg group with a p value of 0.7003 and FIG. 21B for the 50 mg/kg group with a p value of 0.7505).

Compound: O=S(=O)([O-])c1cc(N=C=S)ccc1/C=C/c1ccc(N=C=S)cc1S(=O)(=O)[O-].[Na+].[Na+] [DIDS, 4,4′diisothiocyanostilbene-2,2′-disulfonic acid]
- fraction of viable cells [1]: reduces viability significantly
- fraction of cells with RAD51 foci ([2]; 150 μM DIDS, 2.5 Gy ionizing radiation): completely inhibits radiation-induced RAD51 focus formation
- fraction of cells with RAD51 foci ([2]; 150 µM DIDS, irradiated cells (legend of FIG. 22)): completely inhibits radiation-induced RAD51 focus formation
- cell survival (viable cells) [3]: indistinguishable
- viable cell counts [4]: significant decline in viable cell counts
- IgG2b serum content (ELISA) ([5]; 25 mg/kg DIDS intraperitoneally every seven days): striking decrease
- body weight ([5]; 25 mg/kg DIDS intraperitoneally every seven days for five weeks, versus controls): no weight difference
- IgG1 serum content (ELISA) ([5]; DIDS intraperitoneally every seven days): No significant difference

Source: patent US10207988B2, “Methods and compositions for treatment of cancer and autoimmune disease” (THE JACKSON LABORATORY, priority 2011, dated 2019)
